From PubChem BioAssay AID330 (DTP/NCI, 2004)
Several values for one entry are separate records, joined by “and”; a condition that tells them apart may be missing. Identical values can stand only once. Toxic doses and inconclusive results are not listed. How the source made its calls: active means survival T/C of 150% or more; inactive means T/C below 125% in these data.

System: P388 leukemia ip, CD2F1 mice, survival T/C
Test: NCI In Vivo Anticancer Drug Screen. Data for tumor model P388 Leukemia (intraperitoneal) in CD2F1 (CDF1) mice
Conditions: endpoint: median survival time, higher = longer survival
Procedure, shortened: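 Mice carrying the transplanted tumor received test compound or vehicle. Survival was recorded in each group, and the value is the treated-group measurement divided by that of the vehicle-treated control group.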

[1] = dose: 120.0 mg/kg/injection, schedule: Q01DX005 (ip), vehicle: Klucel (hydroxypropylcellulose) (HPC)
[2] = dose: 100.0 mg/kg/injection, schedule: Q01DX001 (ip), vehicle: saline with Tween-80
[3] = dose: 50.0 mg/kg/injection, schedule: Q01DX009 (ip), vehicle: saline with Tween-80
[4] = dose: 100.0 mg/kg/injection, schedule: Q01DX009 (ip), vehicle: saline with Tween-80
[5] = dose: 200.0 mg/kg/injection, schedule: Q01DX009 (ip), vehicle: saline with Tween-80
[6] = dose: 50.0 mg/kg/injection, schedule: Q01DX009 (ip), vehicle: Klucel (hydroxypropylcellulose) (HPC)
[7] = dose: 100.0 mg/kg/injection, schedule: Q01DX009 (ip), vehicle: Klucel (hydroxypropylcellulose) (HPC)
[8] = dose: 200.0 mg/kg/injection, schedule: Q01DX009 (ip), vehicle: Klucel (hydroxypropylcellulose) (HPC)
[9] = dose: 50.0 mg/kg/injection, schedule: Q01DX009 (ip), vehicle: saline
[10] = dose: 100.0 mg/kg/injection, schedule: Q01DX009 (ip), vehicle: saline
[11] = dose: 200.0 mg/kg/injection, schedule: Q01DX009 (ip), vehicle: saline
[12] = dose: 60.0 mg/kg/injection, schedule: Q01DX005 (ip), vehicle: saline with Tween-80
[13] = dose: 120.0 mg/kg/injection, schedule: Q01DX005 (ip), vehicle: saline with Tween-80
[14] = dose: 240.0 mg/kg/injection, schedule: Q01DX005 (ip), vehicle: saline with Tween-80
[15] = dose: 50.0 mg/kg/injection, schedule: Q01DX005 (ip), vehicle: Klucel (hydroxypropylcellulose) (HPC)
[16] = dose: 50.0 mg/kg/injection, schedule: Q01DX005 (ip), vehicle: saline with Tween-80
[17] = dose: 100.0 mg/kg/injection, schedule: Q01DX005 (ip), vehicle: saline with Tween-80
[18] = dose: 200.0 mg/kg/injection, schedule: Q01DX005 (ip), vehicle: saline with Tween-80

Measured: T/C

CSc1n[nH]c(-c2cccs2)n1
inactive: dose: 60.0 mg/kg/injection, schedule: Q01DX005 (ip), vehicle: Klucel (hydroxypropylcellulose) (HPC) 104 % of control | [1] 105 % of control

CNC(=O)Sc1nnnc2ccccc12
inactive: [2] 109 % of control | dose: 200.0 mg/kg/injection, schedule: Q01DX001 (ip), vehicle: saline with Tween-80 104 % of control | dose: 400.0 mg/kg/injection, schedule: Q01DX001 (ip), vehicle: saline with Tween-80 118 % of control

CN(C)CC1CC/C=C\C(c2ccccc2)N(C)C1c1ccccc1 (stereo unspecified)
inactive: dose: 100.0 mg/kg/injection, schedule: Q04DX003 (ip), vehicle: suspension in saline 105 % of control | dose: 200.0 mg/kg/injection, schedule: Q04DX003 (ip), vehicle: suspension in saline 116 % of control | dose: 400.0 mg/kg/injection, schedule: Q04DX003 (ip), vehicle: suspension in saline 99 % of control

O=C(Nc1ccc(Nc2ccncc2)cc1)c1ccc(N2C(=O)c3ccccc3C2=O)cc1[N+](=O)[O-]
inactive: [3] 98 % of control | [4] 95 % of control | [5] 95 % of control

CCCCCCCC/C=C/CCCCCCCC(=O)N(CCOC(=O)C(C)(C)C)CCOC(=O)C(C)(C)C
inactive: [6] 104 % of control | [7] 112 % of control | [8] 111 % of control

Cc1cccc(-n2c(N)cc(=O)[nH]c2=S)n1
inactive: dose: 25.0 mg/kg/injection, schedule: Q01DX001 (ip), vehicle: saline with Tween-80 100 % of control | dose: 50.0 mg/kg/injection, schedule: Q01DX001 (ip), vehicle: saline with Tween-80 100 % of control | [2] 109 % of control

C=CCN(CC=C)c1nc(N)nc(N)n1
inactive: [9] 96 % of control | [10] 90 % of control | [11] 121 % of control

Cc1c2oc3c(C)c(N)cc(C(=O)NC4C(=O)NC(C(C)C)C(=O)N5CCCC5C(=O)N(C)CC(=O)N(C)C(C(C)C)C(=O)OC4C)c3nc-2c(C(=O)NC2C(=O)NC(C(C)C)C(=O)N3CCCC3C(=O)N(C)CC(=O)N(C)C(C(C)C)C(=O)OC2C)c(N)c1=O (stereo unspecified)
active: dose: 0.3 mg/kg/injection, schedule: Q01DX009 (ip), vehicle: Klucel (hydroxypropylcellulose) (HPC) 190 % of control
inactive: dose: 0.01 mg/kg/injection, schedule: Q01DX009 (ip), vehicle: Klucel (hydroxypropylcellulose) (HPC) 102 % of control | dose: 0.02 mg/kg/injection, schedule: Q01DX009 (ip), vehicle: Klucel (hydroxypropylcellulose) (HPC) 110 % of control | dose: 0.04 mg/kg/injection, schedule: Q01DX009 (ip), vehicle: Klucel (hydroxypropylcellulose) (HPC) 115 % of control | dose: 0.08 mg/kg/injection, schedule: Q01DX009 (ip), vehicle: Klucel (hydroxypropylcellulose) (HPC) 93 % of control

C/C=C1\CN(C)C2Cc3c([nH]c4ccccc34)C(c3c(OC)ccc4c5c([nH]c34)C3(C(=O)OC)CC4CC(CC)C3N(CC5)C4)CC1C2C(=O)OC (stereo unspecified)
inactive: dose: 12.5 mg/kg/injection, schedule: Q01DX009 (ip), vehicle: saline with Tween-80 115 % of control | dose: 25.0 mg/kg/injection, schedule: Q01DX009 (ip), vehicle: saline with Tween-80 106 % of control | [3] 106 % of control | [4] 91 % of control

Cc1noc2c1C(=O)c1ccccc1SC2
inactive: [12] 103 % of control | [13] 94 % of control | [14] 105 % of control

CC(C)(Cl)C1ON1C(C)(C)C (stereo unspecified)
inactive: [12] 107 % of control | [13] 107 % of control | [14] 108 % of control

O=S(=O)(OI(O)c1ccccc1)c1ccc(Cl)cc1
inactive: dose: 12.5 mg/kg/injection, schedule: Q01DX009 (ip), vehicle: water 101 % of control | dose: 25.0 mg/kg/injection, schedule: Q01DX009 (ip), vehicle: water 105 % of control | dose: 50.0 mg/kg/injection, schedule: Q01DX009 (ip), vehicle: water 109 % of control and 114 % of control

O=C(N=Nc1c(Cl)c(O)c2ccccc2c1O)C(=O)Nc1cccc(C(F)(F)F)c1
inactive: dose: 6.25 mg/kg/injection, schedule: Q01DX005 (ip), vehicle: Klucel (hydroxypropylcellulose) (HPC) 107 % of control | dose: 12.5 mg/kg/injection, schedule: Q01DX005 (ip), vehicle: Klucel (hydroxypropylcellulose) (HPC) 107 % of control | dose: 25.0 mg/kg/injection, schedule: Q01DX005 (ip), vehicle: Klucel (hydroxypropylcellulose) (HPC) 107 % of control | [15] 98 % of control

CN(C)c1ccc2c(Cl)ccnc2c1
inactive: dose: 12.5 mg/kg/injection, schedule: Q01DX005 (ip), vehicle: saline with Tween-80 100 % of control | dose: 25.0 mg/kg/injection, schedule: Q01DX005 (ip), vehicle: saline with Tween-80 103 % of control | [16] 103 % of control and 86 % of control

CCCCc1[nH]nc(-c2n[nH]c(CCCC)c2C)c1C
inactive: [12] 95 % of control | [13] 100 % of control | [14] 108 % of control

Cn1cc([N+](=O)[O-])c([N+](=O)[O-])c1
inactive: [3] 102 % of control | [4] 103 % of control | [5] 102 % of control

CCCCCN(CCCCC)CCCCCCCCN1CCCc2ccccc21
inactive: [16] 106 % of control | [17] 108 % of control | [18] 117 % of control

CC(C)OP(=O)(NNP(=O)(OC(C)C)OC(C)C)OC(C)C
inactive: [9] 104 % of control | [10] 105 % of control | [11] 114 % of control

COc1ccc(-n2c(SCC(=O)NC(=O)Nc3ccccc3)nc3c(Br)cc(Br)cc3c2=O)cc1
inactive: dose: 7.5 mg/kg/injection, schedule: Q01DX005 (ip), vehicle: Klucel (hydroxypropylcellulose) (HPC) 97 % of control | dose: 15.0 mg/kg/injection, schedule: Q01DX005 (ip), vehicle: Klucel (hydroxypropylcellulose) (HPC) 92 % of control | dose: 30.0 mg/kg/injection, schedule: Q01DX005 (ip), vehicle: Klucel (hydroxypropylcellulose) (HPC) 86 % of control and 94 % of control | [1] 90 % of control | dose: 240.0 mg/kg/injection, schedule: Q01DX005 (ip), vehicle: Klucel (hydroxypropylcellulose) (HPC) 101 % of control

CCCCCCOC(=O)c1cccc(N)c1
inactive: [6] 100 % of control | [7] 106 % of control | [8] 102 % of control

CCCCC(NC(=O)OCc1ccccc1)C(=O)NC(Cc1c[nH]c2ccccc12)C(=O)O (stereo unspecified)
inactive: [15] 95 % of control | dose: 100.0 mg/kg/injection, schedule: Q01DX005 (ip), vehicle: Klucel (hydroxypropylcellulose) (HPC) 101 % of control | dose: 200.0 mg/kg/injection, schedule: Q01DX005 (ip), vehicle: Klucel (hydroxypropylcellulose) (HPC) 92 % of control

O=S(=O)(Nc1ccccc1)c1ccc(C2CC3(Cl)C(Cl)=C(Cl)C2(Cl)C3(Cl)Cl)cc1 (stereo unspecified)
inactive: dose: 100.0 mg/kg/injection, schedule: Q01DX009 (ip), vehicle: saline sonified 90 % of control | dose: 200.0 mg/kg/injection, schedule: Q01DX009 (ip), vehicle: saline sonified 90 % of control | dose: 400.0 mg/kg/injection, schedule: Q01DX009 (ip), vehicle: saline sonified 90 % of control

CCOC(=O)c1c[nH]c2oc(/C=N/N3CC(CN4CCOCC4)OC3=O)cc2c1=O (stereo unspecified)
inactive: dose: 50.0 mg/kg/injection, schedule: Q01DX005 (ip), vehicle: acid diluted with saline 114 % of control | dose: 100.0 mg/kg/injection, schedule: Q01DX005 (ip), vehicle: acid diluted with saline 118 % of control | dose: 100.0 mg/kg/injection, schedule: Q04DX002 (ip), vehicle: saline 113 % of control

O=C1CC2(CCc3ccccc32)C(=O)N1CCN1CCOCC1 (stereo unspecified)
inactive: [16] 100 % of control | [17] 95 % of control | [18] 105 % of control

COc1cc2c(cc1OC)C(CS(C)=O)Cc1cc(OC)c(OC)cc1N(C)CCC2 (stereo unspecified)
inactive: dose: 100.0 mg/kg/injection, schedule: Q04DX003 (ip), vehicle: saline with Tween-80 93 % of control | dose: 200.0 mg/kg/injection, schedule: Q04DX003 (ip), vehicle: saline with Tween-80 87 % of control | dose: 400.0 mg/kg/injection, schedule: Q04DX003 (ip), vehicle: saline with Tween-80 100 % of control

C(=Nc1cccnc1)c1ccc(C=Nc2cccnc2)cc1
inactive: [9] 108 % of control | [10] 104 % of control

Cc1cc([N+](=O)[O-])cc(C)c1OC(=O)Nc1c(Cl)cccc1Cl
inactive: dose: 30.0 mg/kg/injection, schedule: Q01DX005 (ip), vehicle: saline with Tween-80 101 % of control | [12] 100 % of control and 95 % of control | [13] 99 % of control and 100 % of control | [14] 94 % of control
